In US20150164899A1, “INHIBITION OF ADAPTOR ASSOCIATED KINASE 1 FOR THE TREATMENT OF PAIN” (priority 2012, published 2015):
Where two headings read alike, the source gives them in different places.

What was measured:
GST-Xa-hAAK1 = target: T1, GST-Xa-hAAK1 (Homo sapiens, UniProt Q2M2I8); assay: Caliper assay; type: biochemical; conditions: aryl ethers
T1 construct: made in house
Protocol: The assays were performed in U-bottom 384-well plates. The final assay volume was 30 μl prepared from 15 μl additions of enzyme and substrates (fluoresceinated peptide (5-FAM)-Aha-[…]-NH2 and ATP) and test compounds in assay buffer (10 mM Tris-HCL pH 7.4, 10 mM MgCl2, 0.01% Tween-20 and 1.0 mM DTT). The reactions were initiated by the combination of bacterially expressed, GST-Xa-hAAK1 with substrates and test compounds. The reactions were incubated at room temperature for 3 hours and terminated by adding 60 μl of 35 mM EDTA buffer to each sample. The reactions were analyzed on the Caliper LabChip 3000 (Caliper, Hopkinton, Mass.) by electrophoretic separation of the fluorescent substrate and phosphorylated product. […] The final concentration of reagents in the assays are ATP, 22 μM; (5-FAM)-Aha-[…]-NH2, 1.5 μM; GST-Xa-hAAK1, 3.5 nM; and DMSO, 1.6%. Dose response curves were generated to determine the concentration required inhibiting 50% of kinase activity (IC50). Compounds were dissolved at 10 mM in dimethylsulfoxide (DMSO) and evaluated at eleven concentrations. IC50 values were derived by non-linear regression analysis.

[1] = target: T2, AAK1 (full length human) in transfected HEK293F cells (Homo sapiens, UniProt Q2M2I8); assay: HEK281 cell-based assay (phospho-mu2 Western blot); conditions: read-out: CBA IC50
T2 construct: expressed in transfected cells; host or cells: HEK293F

[2] = system: formalin-induced paw flinching; assay: formalin paw test; type: in vivo; conditions: mice
Protocol: See example 5.4.1, above. The same test was used to confirm that the administration of an AAK1 inhibitor can also affect pain response.
Mice were tested for nociception with Automatic Nociception Analyzers (purchased from the Ozaki lab at University of California, San Diego). A metal band was placed around the left hind paw of each mouse with superglue 30 minutes prior to testing. After the 30-minute acclimation period, 20 μl of 5% formalin was subcutaneously injected in the dorsal surface of the left hind paw. Mice were individually housed in cylindrical chambers for 45 minutes. Fresh 5% formalin solution was prepared by diluting formaldehyde (Formalde-fresh 20%, Fisher Scientific, Fair Lawn, N.J.) with distilled water. Investigatory compounds were administered 30 minutes prior to formalin injection.
A computer software recorded flinches per minute, total flinches for Phase I (acute phase=first 8 minutes), and total flinches for Phase II (tonic phase between 20-40 minutes) through an electromagnetic field. See Yaksh T L, Ozaki G, McCumber D, Rathbun M, Svensson C, Malkmus S, Yaksh M C. An automated flinch detecting system for use in the formalin nociceptive bioassay. J Appl Physiol., 2001; 90:2386-402.
Various compounds of the invention were tested at different doses. Gabapentin and pregabalin were used as positive controls. Results are shown below in Table 2, wherein “*” means an effect equal to or greater than 50 percent of that of gabapentin at 200 mpk, “**” means an effect equal to or greater than 100 percent of that of gabapentin at 200 mpk, “sc” means subcutaneous administration, “ip” means in intraperitoneal administration, and “po” means oral administration.

[3] = HEK281 cell-based assay, pyrazolo[1,5-a]pyrimidine-based inhibitors

T2 sequence (Q2M2I8 1-863 isoform Q2M2I8-2): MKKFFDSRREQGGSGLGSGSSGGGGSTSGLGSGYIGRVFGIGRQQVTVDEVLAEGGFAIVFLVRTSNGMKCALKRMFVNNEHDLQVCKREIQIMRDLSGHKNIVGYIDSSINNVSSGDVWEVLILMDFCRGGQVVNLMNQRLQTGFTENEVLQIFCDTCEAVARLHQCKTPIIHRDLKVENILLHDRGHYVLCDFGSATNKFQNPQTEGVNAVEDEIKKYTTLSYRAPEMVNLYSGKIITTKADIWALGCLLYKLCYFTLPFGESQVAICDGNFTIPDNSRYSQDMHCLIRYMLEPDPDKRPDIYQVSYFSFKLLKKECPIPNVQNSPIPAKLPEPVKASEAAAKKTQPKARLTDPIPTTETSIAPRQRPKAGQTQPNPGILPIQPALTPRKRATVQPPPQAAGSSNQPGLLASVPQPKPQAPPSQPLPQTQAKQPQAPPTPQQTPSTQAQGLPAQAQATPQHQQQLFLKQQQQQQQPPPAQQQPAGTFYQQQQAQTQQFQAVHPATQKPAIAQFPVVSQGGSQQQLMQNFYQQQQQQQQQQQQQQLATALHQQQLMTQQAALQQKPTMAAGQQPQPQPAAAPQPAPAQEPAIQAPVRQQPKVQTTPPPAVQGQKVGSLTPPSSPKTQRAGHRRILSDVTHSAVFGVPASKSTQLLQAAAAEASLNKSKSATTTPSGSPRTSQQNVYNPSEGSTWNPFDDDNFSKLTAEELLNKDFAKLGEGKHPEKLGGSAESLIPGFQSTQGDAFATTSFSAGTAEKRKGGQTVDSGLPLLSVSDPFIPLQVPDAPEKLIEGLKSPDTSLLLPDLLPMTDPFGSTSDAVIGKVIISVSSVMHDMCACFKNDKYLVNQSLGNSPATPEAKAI
T1 sequence (Q2M2I8 whole entry): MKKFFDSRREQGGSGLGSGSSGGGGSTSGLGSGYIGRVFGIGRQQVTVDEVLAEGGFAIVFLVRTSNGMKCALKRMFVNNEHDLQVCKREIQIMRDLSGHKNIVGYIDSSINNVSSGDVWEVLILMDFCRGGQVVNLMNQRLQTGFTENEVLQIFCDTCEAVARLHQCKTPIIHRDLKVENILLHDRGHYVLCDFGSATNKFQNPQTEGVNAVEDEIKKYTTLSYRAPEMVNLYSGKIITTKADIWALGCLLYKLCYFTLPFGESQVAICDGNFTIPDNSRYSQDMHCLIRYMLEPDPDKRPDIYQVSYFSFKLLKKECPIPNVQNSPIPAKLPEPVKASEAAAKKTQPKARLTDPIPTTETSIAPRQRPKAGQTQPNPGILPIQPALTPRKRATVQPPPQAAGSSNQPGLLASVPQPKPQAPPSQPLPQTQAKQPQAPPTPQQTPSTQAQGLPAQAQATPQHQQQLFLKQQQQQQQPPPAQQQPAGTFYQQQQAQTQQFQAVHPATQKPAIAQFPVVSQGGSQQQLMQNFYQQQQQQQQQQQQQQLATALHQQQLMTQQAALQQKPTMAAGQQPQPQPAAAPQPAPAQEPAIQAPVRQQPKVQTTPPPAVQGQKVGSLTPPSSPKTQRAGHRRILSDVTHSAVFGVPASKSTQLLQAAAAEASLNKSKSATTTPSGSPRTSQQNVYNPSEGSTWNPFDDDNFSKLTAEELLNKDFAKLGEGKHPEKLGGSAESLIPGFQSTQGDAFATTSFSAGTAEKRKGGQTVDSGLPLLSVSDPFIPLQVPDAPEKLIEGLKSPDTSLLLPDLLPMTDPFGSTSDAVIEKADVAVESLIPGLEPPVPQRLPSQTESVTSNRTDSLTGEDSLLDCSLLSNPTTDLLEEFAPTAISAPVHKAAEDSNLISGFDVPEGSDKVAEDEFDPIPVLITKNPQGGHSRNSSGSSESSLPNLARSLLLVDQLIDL

Row | IC50 (GST-Xa-hAAK1; class symbols) | IC50 ([1]; aryl ethers, numeric values) | SMILES | other results
1 |  |  | N[C@@H](COc1ccc2c(c1)OCc1cnccc1-2)Cc1ccccc1 | IC50 (GST-Xa-hAAK1; numeric values): 293 nM
2 | 10 to 100 nM | > 300 nM | CC(C)C[C@@H](N)COc1ccc2c(c1)OC(C)c1cnccc1-2 (stereo partly shown) | 
3 | 10 to 100 nM | 18 nM | CCc1cc2c(cc1OC[C@@H](N)CC(C)C)OC(CC)c1cnccc1-2 (stereo partly shown) | 
4 |  | 56 nM | CCC1Oc2cc(OC[C@@H](N)CC(C)C)ccc2-c2ccncc21 (stereo partly shown) | IC50 (GST-Xa-hAAK1; numeric values): 12 nM
5 | 1 to 10 nM |  | CC(C)C[C@H](N)COc1ccc2c(c1)OCc1cnc(N)cc1-2 | IC50 ([1]; aryl ethers, class symbols): 1 to 10 nM
6 |  | 2.5 nM | CC(C)C[C@H](N)COc1cc2c(cc1Br)-c1ccncc1CO2 | IC50 (GST-Xa-hAAK1; numeric values): 0.86 nM
7 |  |  | COc1ccccc1-c1cnn2ccc(NC[C@@H]3CCCN3C(=O)OC(C)(C)C)nc12 [(S)-tert-butyl 2-(((3-(2-methoxyphenyl)pyrazolo[1,5-a]pyrimidin-5-yl)amino)methyl)pyrrolidine-1-carboxylate] | IC50 [1, 3]: ≤ 10 nM; Effect ([2]; 10 mpk sc): * (an effect equal to or greater than 50% of that of gabapentin at 200 mpk); Effect ([2]; 60 mpk sc): * (an effect equal to or greater than 50% of that of gabapentin at 200 mpk)
8 |  |  | CC(C)(C)OC(=O)N1CCC[C@H]1CNc1ccn2ncc(-c3ccncc3)c2n1 [(S)-tert-butyl 2-(((3-(pyridin-4-yl)pyrazolo[1,5-a]pyrimidin-5-yl)amino)methyl)pyrrolidine-1-carboxylate] | IC50 [1, 3]: ≤ 10 nM; Effect ([2]; 30 mpk sc): ** (an effect equal to or greater than 100% of that of gabapentin at 200 mpk)
9 | 10 to 100 nM |  | CC(C)C[C@@H](N)COc1ccc2c(c1)OCc1cnccc1-2 [drawing 25] | 
10 |  |  | CC(C)C[C@H](N)COc1ccc2c(c1)OC(C)c1cnccc1-2 (stereo partly shown) [drawing 30] | IC50 (GST-Xa-hAAK1; numeric values): 4.9 nM
11 | 10 to 100 nM | 25 nM | CC(C)C[C@H](N)COc1ccc2c(c1)OC(C)c1cnccc1-2 (stereo partly shown) [drawing 31] | 
12 | 100 to 1000 nM |  | CC(C)C[C@H](N)COc1ccc2c(c1)OC(C1CC1)c1cnccc1-2 (stereo partly shown) [drawing 36] | 
13 | 1 to 10 nM | 18 nM | CC(C)C[C@H](N)COc1ccc2c(c1)OC(C1CC1)c1cnccc1-2 (stereo partly shown) [drawing 37] | 
14 |  |  | CN(CCNc1ccc2ncc(-c3ccc(C(N)=O)cc3)n2n1)C(=O)OC(C)(C)C [tert-butyl (2-((3-(4-carbamoylphenyl)imidazo[1,2-b]pyridazin-6-yl)amino)ethyl)(methyl)carbamate] | Effect ([2]; 60 mpk sc): ** (an effect equal to or greater than 100% of that of gabapentin at 200 mpk); Effect ([2]; 100 mpk po): ** (an effect equal to or greater than 100% of that of gabapentin at 200 mpk)
